According to patent US8022103B2, “Ester prodrugs of prostratin and related phorbol compounds” (Salvia Sciences, Inc., priority 2005, dated 2011):
Converted amounts (≈) assume the structure as drawn. Read-outs that look alike come from different tables or passages of the source.

Key:
HIV-1IIIB = experiment: PBMC antiviral assay, HIV-1IIIB; assay type: cell-based; conditions: human PBMCs
Experimental: Compounds SA-101A and SA-101B were tested for antiviral activity against HIV-1 in peripheral blood mononuclear cells (PBMC) acutely infected with the HIV-1 isolates. PBMCs were derived from normal HIV-1 negative donors, and cultured under conditions which promote cell survival and HIV replication. Fresh human blood was obtained commercially from Biological Specialty Corporation (Colmar, Pa.). The low passage clinical isolates HIV-1Ba-L, HIVIIIB, and SIVmac251 were from the NIAID AIDS Research and Reference Reagent Program. Immediately before use, pre-titered aliquot of the viruses were removed from storage in a freezer (−80° C.) and thawed rapidly to room temperature in a biological safety cabinet. Phytohemagglutinin (PHA-P) was obtained from Sigma (St. Louis, Mo.) and recombinant IL-2 was obtained from R&D Systems Inc. (Minneapolis, Minn.). Antiviral activity was tested from a high-test concentration of 100 μM or 100 μg/ml with nine ½-log serial dilutions of the compound to derive applicable IC50 (concentration inhibition virus replication by 50%), IC90 (concentration inhibition virus replication by 90%), TC50 (concentration decreasing cell viability by 50%) and TI (therapeutic index: TC50/IC50) values.
Preparation of PMBC. Fresh Human PBMCs, Seronegative for HIV and HBV, were isolated from screened donors (Interstate Blood Bank, Inc. Memphis, Tenn.). Cells were pelleted/washed 2-3 times by low speed centrifugation and resuspensded in PBS to remove contaminating platelets. The leukophoresed blood was then diluted 1:1 with Dulbecco's Phosphate Buffered Saline (DPBS) and layered over 14 mL of Lymphocyte Separation Medium (LSM; Cellgro® by Mediatech, Inc.; density 1.078+/−0.002 g/ml; Cat. # 85-072-CL) in a 50 mL centrifuge tube and then centrifuged for 30 minutes at 600×g. […]
PMBC assay. […] Pooling (mixing) of mononuclear cells from more than one donor is used to minimize the variability observed between individual donors, which results from quantitative and qualitative differences in HIV infection and overall response to the PHA and IL-2 of primary lymphocyte populations. […]

[1] = test system: human monocytes/macrophages; experiment: MTS staining for macrophage viability (cytotoxicity); assay type: cell-based
Experimental: Anti-HIV efficacy evaluation in human monocyte/macrophages. Following 6 to 14 days in culture, the monocyte/macrophages cultures were washed 3 times to remove any non-adherent cells, and serially diluted test compounds were added followed by the addition of a pre-titered amount of HIV. Cultures were washed a final time by media removal 24 h post infection, fresh compound added and the cultures continued for an additional six days. Assays were performed using a standardized microtiter plate format developed by the Infectious Disease Research Department of Southern Research Institute. […] At assay termination, virus replication was measured by collecting cell-free supernatant samples, which were analyzed for HIV p24 antigen content using a commercially available p24 ELISA assay (Coulter). Following removal of supernatant samples, compound cytotoxicity was measured by addition of MTS to the plates for determination of cell viability. […]
MTS staining for macrophage viability to measure cytotoxicity. At assay termination, the assay plates were stained with the soluble tetrazolium-based dye MTS (CellTiter Reagent, Promega) to determine cell viability and quantify compound cytotoxicity. MTS is metabolized by the mitochondrial enzymes of metabolically active cells to yield a soluble formazan product, allowing the rapid quantitative analysis of cell viability and compound cytotoxicity. […]

For `CC(=O)O[C@@]12C[C@@H](C)[C@@]3(O)[C@@H](C=C(CO)C[C@]4(O)C(=O)C(C)=C[C@@H]34)[C@@H]1C2(C)C` [SA-101A, 12-deoxyphorbol 13-acetate], the IC50 (HIV-1IIIB; Human immunodeficiency virus 1, PBMC) was 0.09 µg/mL (≈ 0.23 µM), the IC90 (HIV-1IIIB; Human immunodeficiency virus 1, PBMC, read-out: IC90) was 0.5 µg/mL (≈ 1.28 µM) and the TC50 [1] was 17.3 µg/mL (≈ 44.3 µM).

In the case of `CC(=O)OC12CC(C)C3(O)C(C=C(COC(=O)CCC(=O)O)CC4(O)C(=O)C(C)=CC43)C1C2(C)C` (centres unmarked) [SA-101B, Prostratin Succinate], the IC90 (HIV-1IIIB; 40% Human AB serum) was over 1.00 µg/mL and the TC50 ([1]; 40% Human AB serum) was 21.0 µg/mL.
